Test [1] concerns the target T1, Gonadotropin-releasing hormone receptor (Homo sapiens, UniProt P30968).
T1 sequence (P30968 whole entry): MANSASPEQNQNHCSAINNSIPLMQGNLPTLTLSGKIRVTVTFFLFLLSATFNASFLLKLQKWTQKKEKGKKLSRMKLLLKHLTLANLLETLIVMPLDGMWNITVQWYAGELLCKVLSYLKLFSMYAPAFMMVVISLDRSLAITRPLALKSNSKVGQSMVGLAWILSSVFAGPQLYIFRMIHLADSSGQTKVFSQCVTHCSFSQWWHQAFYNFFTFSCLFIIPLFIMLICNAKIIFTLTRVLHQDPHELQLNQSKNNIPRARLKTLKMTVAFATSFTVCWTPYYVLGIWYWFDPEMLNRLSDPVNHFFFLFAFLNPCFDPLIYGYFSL
Nature of the test: Inhibition of GnRH-stimulated phosphatidylinositol (PI) hydrolysis in cloned chinese hamster ovary (CHO) cells expressing human GnRH receptor. The format is functional, cell-based.

Test [2] addresses Gonadotropin-releasing hormone receptor (Homo sapiens) (UniProt P30968). Nature of the test: Inhibition of [125I]buserelin binding to human Gonadotropin-releasing hormone receptor.
The target of test [3] is T2, Gonadotropin-releasing hormone receptor (Rattus norvegicus, UniProt P30969).
T2 sequence (P30969 whole entry): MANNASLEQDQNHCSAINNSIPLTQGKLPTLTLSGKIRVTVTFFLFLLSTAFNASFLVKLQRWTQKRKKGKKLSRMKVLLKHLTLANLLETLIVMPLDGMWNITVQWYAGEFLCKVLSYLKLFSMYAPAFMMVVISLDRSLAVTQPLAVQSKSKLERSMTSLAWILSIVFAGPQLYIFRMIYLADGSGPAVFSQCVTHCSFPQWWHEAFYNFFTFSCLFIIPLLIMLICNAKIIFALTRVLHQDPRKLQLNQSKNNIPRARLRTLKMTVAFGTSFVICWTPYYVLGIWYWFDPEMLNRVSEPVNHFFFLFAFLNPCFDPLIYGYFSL
In words: Inhibition of GnRH-stimulated luteinizing hormone (LH) release in rat pituitary cells. It counts as functional, cell-based, Pituitary gland cell.

Test [4] deals with T2, Gonadotropin-releasing hormone receptor. Nature of the test: Inhibition of [125I]buserelin binding to rat Gonadotropin-releasing hormone receptor.
Test [5] addresses T1, Gonadotropin-releasing hormone receptor. Nature of the test: Inhibition of [125I]buserelin binding to human Gonadotropin-releasing hormone receptor.

One may read the IC50 as the point on the concentration scale where inhibition reaches its midpoint. Higher therefore signals weaker potency in that assay. As to `Cc1cc(C)cc(-c2[nH]c3ccc(C(C)(C)C(=O)N4C5CCC4CC5)cc3c2CCN(CCCCc2ccncc2)C(C)C)c1`, the IC50 in test [1] was found to be 200 nM; in test [2], 3.1 nM.

For `Cc1cc(C)cc(-c2[nH]c3ccc(C(=O)N(C)C)cc3c2CCNCCCCc2ccncc2)c1`, the IC50 in test [3] was 1460 nM; in test [4], 0.8 nM.

As to `CCN(C(=O)c1ccc2[nH]c(-c3cc(C)cc(C)c3)c(CCNCCCCc3ccncc3)c2c1)C1CCCCCCC1`, the IC50 in test [3] stood at 81 nM; in test [5], 1.9 nM; in test [1] it was 15 nM.

For the compound `Cc1cc(C)cc(-c2[nH]c3ccc(C4(C(=O)N5C6CCC5CC6)CCC4)cc3c2CCNCCCCc2ccncc2)c1`, the half-maximal inhibitory concentration (IC50) is 170 nM in test [1] and 1.2 nM in test [2].

Consider `CCN(CC)C(=O)c1ccc2[nH]c(-c3cc(C)cc(C)c3)c(CCN(C)CCCCc3ccncc3)c2c1`, for which the concentration for half-maximal inhibition (IC50) in test [3] was 430 nM; in test [5], 30 nM; in test [1], 58 nM.

For `CCCCN(CCCC)C(=O)c1ccc2[nH]c(-c3cc(C)cc(C)c3)c(CCNCCCCc3ccncc3)c2c1`, the values for the IC50 in test [3] and in test [4] were 240 nM and 0.4 nM, respectively.

As to `CCN(CC)C(=O)C(C)(C)c1ccc2[nH]c(-c3cc(C)cc(C)c3)c(CCNCCCCc3cccnc3)c2c1`, the IC50 in test [3] worked out at 240 nM; in test [1], 94 nM; in test [2], 3.3 nM.

Regarding `Cc1cc(C)cc(-c2[nH]c3ccc(C(C)(C)C(=O)N4C5CCC4CC5)cc3c2CCN(C)CCCCc2ccncc2)c1`, the IC50 turned out to be 71 nM in test [3], 110 nM in test [1] and 1.5 nM in test [2].

Consider `Cc1cc(C)cc(-c2[nH]c3ccc(C(=O)N4C(C)CCC4C)cc3c2CCNCCCCc2ccncc2)c1` (stereo not drawn), for which the IC50 in test [3] came to 340 nM; in test [4], 0.3 nM.

Regarding `Cc1cc(C)cc(-c2[nH]c3ccc(C(C)(C)C(=O)N4CCCC4)cc3c2CCNCCCCc2cccnc2)c1`, the IC50 in test [3] was found to be 290 nM; in test [1], 61 nM; in test [2] it was 5 nM.

With `CCN(CCCCc1ccncc1)CCc1c(-c2cc(C)cc(C)c2)[nH]c2ccc(C(C)(C)C(=O)N3C4CCC3CC4)cc12`, the half-maximal inhibitory concentration (IC50) in test [3] is 730 nM; in test [1], 90 nM; in test [2] it was 2.2 nM.

Regarding `Cc1cc(C)cc(-c2[nH]c3ccc(C(C)(C)C(=O)N(CC(C)C)CC(C)C)cc3c2CCNCCCCc2cccnc2)c1`, the concentration for half-maximal inhibition (IC50) in test [3] turned out to be 400 nM; in test [1] it was 22 nM; in test [2] it was 1.7 nM.

Consider `Cc1cc(C)cc(-c2[nH]c3ccc(C(C)(C)C(=O)N(CC(C)C)CC(C)C)cc3c2CCNCCCCc2ccncc2)c1`, for which the IC50 amounted to 140 nM in test [3], 8.3 nM in test [1] and 2.8 nM in test [2].

Consider `CCC(CC)(C(=O)N1C2CCC1CC2)c1ccc2[nH]c(-c3cc(C)cc(C)c3)c(CCNCCCCc3ccncc3)c2c1`, for which the IC50 was 260 nM in test [3], 40 nM in test [1] and 1.7 nM in test [2].

Take `Cc1cc(C)cc(-c2[nH]c3ccc(C(C)(C)C(=O)N4CCOCC4)cc3c2CCNCCCCc2ccncc2)c1`: the IC50 was 540 nM in test [3], 59 nM in test [1] and 11 nM in test [2].

Regarding `Cc1cc(C)cc(-c2[nH]c3ccc(C(C)(C)C(=O)N4C5CCC4CC5)cc3c2CCN(CCCCc2ccncc2)CC(C)C)c1`, the 50% inhibitory concentration (IC50) in test [1] came out at 300 nM; in test [2], 8.2 nM.

On to `CCC(C)(C(=O)N1C2CCC1CC2)c1ccc2[nH]c(-c3cc(C)cc(C)c3)c(CCNCCCCc3ccncc3)c2c1` (stereo not drawn), for which the IC50 in test [3] was determined as 240 nM; in test [1], 38 nM; in test [2], 1 nM.

In the case of `Cc1cc(C)cc(-c2[nH]c3ccc(C(C)(C)C(=O)N4CCCCC4)cc3c2CCNCCCCc2ccncc2)c1`, the IC50 was 1200 nM in test [3], 38 nM in test [1] and 1.8 nM in test [2].

On to `CCN(CCO)C(=O)c1ccc2[nH]c(-c3cc(C)cc(C)c3)c(CCNCCCCc3cccnc3)c2c1`, for which the IC50 stood at 1200 nM in test [3] and 0.6 nM in test [4].

For `Cc1cc(C)cc(-c2[nH]c3ccc(C(=O)N(C)C)cc3c2CCNCCCCc2cccnc2)c1`, the IC50 in test [3] was found to be 2600 nM; in test [4] it was 0.7 nM.

On to `Cc1cc(C)cc(-c2[nH]c3ccc(C(C)(C)C(=O)N4CC(C)(C)C4)cc3c2CCNCCCCc2cccnc2)c1`, for which the IC50 is 190 nM in test [3], 62 nM in test [1] and 1 nM in test [2].

Take `Cc1cc(C)cc(-c2[nH]c3ccc(C(=O)N4CCOCC4)cc3c2CCNCCCCc2cccnc2)c1`: the concentration for half-maximal inhibition (IC50) was 1600 nM in test [3] and 0.4 nM in test [4].

As to `Cc1cc(C)cc(-c2[nH]c3ccc(C(=O)NC(C)C)cc3c2CCNCCCCc2cccnc2)c1`, the IC50 in test [3] is above 1300 nM; in test [5], 55 nM; in test [1] it was 1200 nM.

Regarding `Cc1cc(C)cc(-c2[nH]c3ccc(C(C)(C)C(=O)N(C)C)cc3c2CCNCCCCc2cccnc2)c1`, the results for the IC50 in test [3] and in test [4] were 680 nM and 0.5 nM, respectively.

As for `Cc1cc(C)cc(-c2[nH]c3ccc(C(C)(C)C(N)=O)cc3c2CCNCCCCc2cccnc2)c1`, the half-maximal inhibitory concentration (IC50) turned out to be 32 nM in test [5] and 350 nM in test [1].

For the compound `Cc1cc(C)cc(-c2[nH]c3ccc(C(C)(C)C(=O)N(C)C)cc3c2CCNCCCCc2ccncc2)c1`, the 50% inhibitory concentration (IC50) in test [3] came to 930 nM; in test [4], 0.3 nM.

Consider `CCCCN(CCCC)C(=O)c1ccc2[nH]c(-c3cc(C)cc(C)c3)c(CCNCCCCc3cccnc3)c2c1`, for which the IC50 was found to be 1000 nM in test [3] and 0.4 nM in test [4].

With `CCN(CC)C(=O)C(C)(C)c1ccc2[nH]c(-c3cc(C)cc(C)c3)c(CCNCCCCc3ccncc3)c2c1`, the IC50 in test [3] amounted to 210 nM; in test [1] it was 58 nM; in test [2] it was 3.2 nM.

`Cc1cc(C)cc(-c2[nH]c3ccc(C(C)(C)C(=O)N4C5CCC4CC5)cc3c2CCNCCCCc2ccncc2)c1`: the half-inhibitory concentration (IC50) in test [3] came out at 71 nM; in test [1], 18 nM; in test [2] it was 1.4 nM.

Consider `Cc1cc(C)cc(-c2[nH]c3ccc(C(C)(C)C(=O)N4C5CCC4CC5)cc3c2CCNCCCCc2cccnc2)c1`, for which the IC50 in test [3] is 73 nM; in test [1], 14 nM; in test [2], 1.4 nM.

Take `CCN(C(=O)C(C)(C)c1ccc2[nH]c(-c3cc(C)cc(C)c3)c(CCNCCCCc3ccncc3)c2c1)C1CCCCC1`: the values for the half-inhibitory concentration (IC50) in test [3], in test [1] and in test [2] were 960 nM, 54 nM and 2.3 nM, respectively.

For `Cc1cc(C)cc(-c2[nH]c3ccc(C(=O)N(C(C)C)C(C)C)cc3c2CCNCCCCc2ccncc2)c1`, the concentration for half-maximal inhibition (IC50) turned out to be 400 nM in test [3] and 0.3 nM in test [4].

For the compound `Cc1cc(C)cc(-c2[nH]c3ccc(C(=O)N4CCCC4)cc3c2CCNCCCCc2ccncc2)c1`, the IC50 in test [3] was above 1300 nM; in test [4] it was 0.5 nM.

Take `Cc1cc(C)cc(-c2[nH]c3ccc(C(=O)N4CCOCC4)cc3c2CCNCCCCc2ccncc2)c1`: the IC50 in test [3] is 1400 nM; in test [4], 0.3 nM.

As to `Cc1cc(C)cc(-c2[nH]c3ccc(C(=O)N4CCCC4)cc3c2CCNCCCCc2cccnc2)c1`, the IC50 was 5100 nM in test [3] and 0.6 nM in test [4].

For `Cc1cc(C)cc(-c2[nH]c3ccc(C(=O)N4C5CCC4CC5)cc3c2CCNCCCCc2ccncc2)c1`, the values for the IC50 in test [5] and in test [1] were 32 nM and 260 nM, respectively.

Take `Cc1cc(C)cc(-c2[nH]c3ccc(C(C)(C)C(=O)N4C(C)CCC4C)cc3c2CCNCCCCc2ccncc2)c1` (stereo not drawn): the values for the half-inhibitory concentration (IC50) in test [3], in test [1] and in test [2] were 160 nM, 15 nM and 2.8 nM, respectively.

For the origin of these results see ChEMBL document CHEMBL1134123, “Potent nonpeptide GnRH receptor antagonists derived from substituted indole-5-carboxamides and -acetamides bearing a pyridine side-chain terminus” (Bioorg Med Chem Lett, 2001).
